Results on four compounds are retold here after article PMC6073854, “Role of Arginine 117 in Substrate Recognition by Human Cytochrome P450 2J2” (International Journal of Molecular Sciences, 2018).

A word on the IC50: it is the point on the concentration scale where inhibition reaches its midpoint.

Molecules are shown by their SMILES. Substitutions are numbered along the chain they refer to. Where “and” joins values, the source holds several entries; their conditions need not be identical. Equal values may be shown once.

One data set has as its system wild type CYP2J2. Also on record: method as in PMID 17705402. Particulars: docked model, WT; values previously reported ref 50; cited from earlier work.
The target of another data set is T1, wild-type CYP2J2 (Homo sapiens, UniProt P51589).
T1 sequence (P51589 1-502): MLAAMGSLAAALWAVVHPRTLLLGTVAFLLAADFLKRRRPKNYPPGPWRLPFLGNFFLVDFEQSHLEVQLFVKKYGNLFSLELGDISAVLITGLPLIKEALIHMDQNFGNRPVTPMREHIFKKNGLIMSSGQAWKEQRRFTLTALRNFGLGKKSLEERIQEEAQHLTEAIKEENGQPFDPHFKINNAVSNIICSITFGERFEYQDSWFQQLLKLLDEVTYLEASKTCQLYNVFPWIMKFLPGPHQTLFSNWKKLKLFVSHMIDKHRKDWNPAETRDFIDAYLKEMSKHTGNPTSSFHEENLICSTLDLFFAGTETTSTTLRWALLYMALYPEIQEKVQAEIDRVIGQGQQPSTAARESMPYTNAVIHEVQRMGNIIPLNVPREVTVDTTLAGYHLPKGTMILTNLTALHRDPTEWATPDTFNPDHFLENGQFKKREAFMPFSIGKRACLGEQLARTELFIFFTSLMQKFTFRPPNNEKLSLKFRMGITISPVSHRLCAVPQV
As to conditions: cited from earlier work.

In the next data set the target is T2, CYP2J2-R117E (Homo sapiens, UniProt P51589, R117E).
T2 sequence (P51589 1-502 R117E): T1 sequence (P51589 1-502) with R117E
The data set is described as follows: biochemical.

Another data set deals with T3, CYP2J2-R117K (Homo sapiens, UniProt P51589, R117K).
T3 sequence (P51589 1-502 R117K): T1 sequence (P51589 1-502) with R117K
The data set can be described thus: biochemical.

Turning to `CCCc1ccc(C(=O)CCCN2CCC(C(O)(c3ccccc3)c3ccccc3)CC2)cc1` [Compound 2], the “Fe-C distance, α carbon of R group” value in the data set with wild type CYP2J2 is recorded as 4.9 Å. The “Fe-C distance, β carbon of R group” value with wild type CYP2J2 is on record as 3.8 Å. Further, the “Fe-C distance, γ carbon of R group” value with wild type CYP2J2 is 4.6 Å. In addition, the half-inhibitory concentration (IC50) at wild-type CYP2J2 was 400 ± 100 nM; against CYP2J2-R117E, 1000 nM and 500 nM; at CYP2J2-R117K, 1100 ± 200 nM.
Consider `CC(C)(C)c1ccc(CCCCN2CCC(C(O)(c3ccccc3)c3ccccc3)CC2)cc1` [Compound 3], for which the IC50 at wild-type CYP2J2 is 3600 ± 700 nM; at CYP2J2-R117E it was 2100 ± 400 nM; on CYP2J2-R117K it was 8600 ± 200 nM.
`CCCc1ccc(CCCCN2CCC(C(O)(c3ccccc3)c3ccccc3)CC2)cc1` [Compound 4]: the figures for the IC50 at wild-type CYP2J2, against CYP2J2-R117E and at CYP2J2-R117K were 4500 ± 900 nM, 2900 ± 200 nM and 13200 ± 100 nM, respectively.
`CC(C)(C)c1ccc(C(=O)CCCN2CCC(C(O)(c3ccccc3)c3ccccc3)CC2)cc1` [Terfenadone 1, Terfenadone]: the IC50 is 700 ± 100 nM on wild-type CYP2J2; 500 nM and 1000 nM against CYP2J2-R117E; roughly 1000 nM against CYP2J2-R117K.
